The test system of experiment [1] is p52 (NF-kB2) nuclear translocation in HeLa cells. Kind of experiment: p52 (NF-kB2) nuclear translocation assay in HeLa cells, anti-lymphotoxin beta receptor antibody stimulated (non-classical NF-kB signaling), high content imaging. As to conditions: 100 ng/mL anti-lymphotoxin beta receptor antibody for 5 hours, read-out: p52 HeLa Transloc Assay (IC50). It is filed as cell-based. In a few lines:
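HeLa cells in 10% FBS medium were treated with compound (0.2% DMSO final) and stimulated with 100 ng/mL anti-lymphotoxin beta receptor antibody for 5 h. Fixed cells were immunostained for p52 and imaged with DRAQ5 nuclear stain. Translocation is the nuclear to cytoplasmic intensity ratio, […].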

Experiment [2] deals with T1, nuclear factor-kappa B (NF-kB)-inducing kinase (NIK) (Homo sapiens, UniProt Q99558).
T1 construct: made in house; host or cells: baculovirus-infected insect cells
Briefly: NIK enzyme inhibition assay (Transcreener ADP fluorescence polarization, NIK ADP-FP). It counts as biochemical.
Protocol: NIK Enzyme Inhibition Assay:
The ability of the nuclear factor-kappa B (NF-kB)-inducing kinase (NIK) to catalyze the hydrolysis of adenosine-5′-triphosphate (ATP) was monitored using the Transcreener ADP (adenosine-5′-diphosphate) assay (BellBrook Labs). […] Reactions were quenched by the addition of 20 mM 2,2′,2″,2′″-(ethane-1,2-diyldinitrilo)tetraacetic acid and 0.01% Brij 35. The tracer bound to the antibody was displaced by the ADP generated during the NIK reaction, which causes a decrease in fluorescence polarization that was measured by laser excitation at 633 nm with a Fluorescence Correlation Spectroscopy Plus reader (Evotec AG). Equilibrium dissociation constant (Ki) values for NIK inhibitors are calculated from plots of activity vs. inhibitor concentration using Morrison's quadratic equation that accounts for the potential of tight binding, and by also applying the conversion factor that accounted for competitive inhibition and the concentration of substrate used in the assay relative to its Michaelis constant (Km).

Experiment [3] deals with REL-A (p65) nuclear translocation in HeLa cells. Briefly: REL-A (p65) nuclear translocation assay in HeLa cells, TNF-α stimulated (classical NF-kB signaling), high content imaging. It is filed as cell-based. The settings on record: compound 4.5 h, then 10 ng/mL TNF-α for 30 minutes, read-out: REL-A HeLa Transloc Assay (IC50). In a few lines:
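HeLa cells in medium with 10% fetal bovine serum were exposed to compounds (0.2% DMSO final) for 4.5 hours, then stimulated with 10 ng/mL TNF-α for 30 minutes. After fixation in 4% paraformaldehyde and permeabilization with 0.1% Triton X-100, cells were stained with 400 ng/mL anti-REL-A (p65) antibody, an Alexa488 secondary and DRAQ5. Opera imaging quantified the nuclear-to-cytoplasmic signal ratio to give IC50.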

The mark [4] stands for this setting: purified NIK 0.5 nM, 10 μM ATP, pH 7.2, Ki from Morrison's quadratic equation.

Like-named read-outs stand apart in the source and are kept apart here. Bounds are passed on as bounds.

T1 sequence (Q99558 whole entry): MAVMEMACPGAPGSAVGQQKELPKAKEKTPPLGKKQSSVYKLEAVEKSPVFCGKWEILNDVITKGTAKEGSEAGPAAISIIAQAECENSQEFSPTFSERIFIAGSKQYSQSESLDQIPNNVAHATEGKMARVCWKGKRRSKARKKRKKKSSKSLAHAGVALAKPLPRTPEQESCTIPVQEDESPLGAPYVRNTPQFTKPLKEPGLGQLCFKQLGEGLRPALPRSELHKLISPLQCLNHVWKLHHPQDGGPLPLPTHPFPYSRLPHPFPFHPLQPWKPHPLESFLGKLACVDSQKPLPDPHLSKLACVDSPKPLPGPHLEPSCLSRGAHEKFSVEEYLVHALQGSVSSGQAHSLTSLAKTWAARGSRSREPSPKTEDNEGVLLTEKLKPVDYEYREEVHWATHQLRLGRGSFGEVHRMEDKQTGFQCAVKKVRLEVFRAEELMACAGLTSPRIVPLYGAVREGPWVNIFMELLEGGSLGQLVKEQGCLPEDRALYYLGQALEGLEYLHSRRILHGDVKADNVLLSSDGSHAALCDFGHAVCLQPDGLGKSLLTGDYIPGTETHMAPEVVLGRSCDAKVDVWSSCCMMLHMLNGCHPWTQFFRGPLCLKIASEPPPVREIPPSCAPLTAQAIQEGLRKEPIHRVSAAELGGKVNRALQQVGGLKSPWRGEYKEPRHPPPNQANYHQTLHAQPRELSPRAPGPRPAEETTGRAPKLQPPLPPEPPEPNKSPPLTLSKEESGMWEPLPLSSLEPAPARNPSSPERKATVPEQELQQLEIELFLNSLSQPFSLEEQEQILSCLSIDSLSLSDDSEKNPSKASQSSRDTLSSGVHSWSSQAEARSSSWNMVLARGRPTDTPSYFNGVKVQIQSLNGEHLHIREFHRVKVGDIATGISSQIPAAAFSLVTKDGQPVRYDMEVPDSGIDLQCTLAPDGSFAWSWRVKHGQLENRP

Consider `CN1CC[C@@](O)(C#Cc2cccc(-c3nc(C(N)=O)cn4ccnc34)c2)C1=O` [Example 48, 8-[3-[2-[(3R)-3-hydroxy-1-methyl-2-oxo-pyrrolidin-3-yl]ethynyl]phenyl] imidazo[1,2-a]pyrazine-6-carboxamide], for which the concentration for half-maximal inhibition (IC50) in experiment [1] was 122 nM; in experiment [3], no less than 20000 nM. In experiment [2] (setting [4]), this compound yielded a Ki of 0.39 nM.

As for `CN1CC[C@@](O)(C#Cc2cccc(-c3cc4cc[nH]c4c(C(N)=O)n3)c2)C1=O` [Example 49, 5-[3-[2-[(3R)-3-hydroxy-1-methyl-2-oxo-pyrrolidin-3-yl]ethynyl]phenyl]-1H-pyrrolo [2,3-c]pyridine-7-carboxamide], the half-inhibitory concentration (IC50) is 8.2 nM in experiment [1] (Homo sapiens) and no less than 2000 nM in experiment [3] (Homo sapiens, HeLa). The same compound had a Ki in experiment [2] of 0.05 nM.

On to `CN1CC[C@@](O)(C#Cc2cccc(-c3nc(C(N)=O)nc4c3ccn4C)c2)C1=O` [Example 50, 4-[3-[2-[(3R)-3-hydroxy-1-methyl-2-oxo-pyrrolidin-3-yl]ethynyl]phenyl]-7-methyl-pyrrolo[2,3-d]pyrimidine-2-carboxamide], for which the IC50 was 346 nM in experiment [1] (Homo sapiens) and no less than 20000 nM in experiment [3] (Homo sapiens, HeLa). For the same compound, in experiment [2], the affinity corresponds to a Ki of 1.08 nM.

`CN1CC[C@@](O)(C#Cc2cccc(-c3cc(-n4cncn4)cc(C(N)=O)n3)c2)C1=O` [Example 51, 6-[3-[2-[(3R)-3-hydroxy-1-methyl-2-oxo-pyrrolidin-3-yl]ethynyl]phenyl]-4-(1,2,4-triazol-1-yl)pyridine-2-carboxamide]: the half-maximal inhibitory concentration (IC50) in experiment [1] (Homo sapiens) was 129 nM; in experiment [3] (Homo sapiens, HeLa), no less than 20000 nM. Moreover, in experiment [2], the inhibitory constant (Ki) was 0.23 nM.

As to `CN1CC[C@@](O)(C#Cc2cccc(-c3cc(-n4cccn4)cc(C(N)=O)n3)c2)C1=O` [Example 52, 6-[3-[2-[(3R)-3-hydroxy-1-methyl-2-oxo-pyrrolidin-3-yl]ethynyl]phenyl]-4-pyrazol-1-yl-pyridine-2-carboxamide], the concentration for half-maximal inhibition (IC50) in experiment [1] (Homo sapiens) was 26 nM; in experiment [3] (Homo sapiens, HeLa) it was no less than 20000 nM. The affinity in experiment [2] corresponds to a Ki of 0.13 nM.

`CN1CC[C@@](O)(C#Cc2cccc(-c3cc(-c4ccnn4C)nc(C(N)=O)n3)c2)C1=O` [Example 53, 4-[3-[2-[(3R)-3-hydroxy-1-methyl-2-oxo-pyrrolidin-3-yl]ethynyl]phenyl]-6-(2-methylpyrazol-3-yl) pyrimidine-2-carboxamide]: the IC50 in experiment [1] (Homo sapiens) was 725 nM; in experiment [3] (Homo sapiens, HeLa) it was no less than 20000 nM. Besides, the Ki in experiment [2] was 0.67 nM.

Take `CN1CC[C@@](O)(C#Cc2cccc(-c3nc(C(N)=O)c(N)cc3F)c2)C1=O` [Example 59, 3-amino-5-fluoro-6-[3-[2-[(3R)-3-hydroxy-1-methyl-2-oxo-pyrrolidin-3-yl]ethynyl]phenyl] pyridine-2-carboxamide]: the IC50 in experiment [1] (Homo sapiens) was determined as 23.2 nM; in experiment [3] (Homo sapiens, HeLa), 6320 nM. The compound also displayed an inhibitory constant (Ki) in experiment [2] of 0.16 nM.

Take `CN1CC[C@@](O)(C#Cc2cccc(-c3nc(C(N)=O)c(Cl)cc3F)c2)C1=O` [Example 60, 3-chloro-5-fluoro-6-[3-[2-[(3R)-3-hydroxy-1-methyl-2-oxo-pyrrolidin-3-yl]ethynyl]phenyl] pyridine-2-carboxamide]: the IC50 in experiment [1] (Homo sapiens) is 1390 nM; in experiment [3] (Homo sapiens, HeLa), no less than 20000 nM. This compound also came in with an inhibitory constant (Ki) in experiment [2] of 5.61 nM.

Take `CN1CC[C@@](O)(C#Cc2cccc(-c3cnc(N)c(C(N)=O)n3)c2)C1=O` [Example 62, 3-amino-6-[3-[2-[(3R)-3-hydroxy-1-methyl-2-oxo-pyrrolidin-3-yl]ethynyl]phenyl] pyrazine-2-carboxamide]: the IC50 amounted to 11.5 nM in experiment [1] (Homo sapiens) and 1000 nM in experiment [3] (Homo sapiens, HeLa). The Ki in experiment [2] stood at 0.11 nM.

Turning to `CN1CC[C@@](O)(C#Cc2cccc(-c3nc(C(N)=O)cc(-c4cncn4C)n3)c2)C1=O` [Example 66, 2-[3-[2-[(3R)-3-hydroxy-1-methyl-2-oxo-pyrrolidin-3-yl]ethynyl]phenyl]-6-(3-methylimidazol-4-yl) pyrimidine-4-carboxamide], the IC50 was 139 nM in experiment [1] (Homo sapiens) and no less than 20000 nM in experiment [3] (Homo sapiens, HeLa). This compound gave a Ki in experiment [2] of 0.16 nM.

Regarding `CCn1nccc1-c1cc(C(N)=O)nc(-c2cccc(C#C[C@]3(O)CCN(C)C3=O)c2)n1` [Example 67, 6-(2-ethylpyrazol-3-yl)-2-[3-[2-[(3R)-3-hydroxy-1-methyl-2-oxo-pyrrolidin-3-yl]ethynyl]phenyl] pyrimidine-4-carboxamide], the IC50 in experiment [1] is 21.8 nM; in experiment [3] it was no less than 20000 nM. Besides, in experiment [2] (setting [4]), the inhibitory constant (Ki) was 0.08 nM.

With `CN1CC[C@@](O)(C#Cc2cccc(-c3nc(C(N)=O)cc(-c4ccn(C)n4)n3)c2)C1=O` [Example 68, 2-[3-[2-[(3R)-3-hydroxy-1-methyl-2-oxo-pyrrolidin-3-yl]ethynyl]phenyl]-6-(1-methylpyrazol-3-yl) pyrimidine-4-carboxamide], the half-maximal inhibitory concentration (IC50) was 89.4 nM in experiment [1] (Homo sapiens) and no less than 20000 nM in experiment [3] (Homo sapiens, HeLa). Also, in experiment [2], the Ki was found to be 0.53 nM.

On to `CN1CC[C@@](O)(C#Cc2cccc(-c3nc(C(N)=O)cc(-c4ccn[nH]4)n3)c2)C1=O` [Example 69, 2-[3-[2-[(3R)-3-hydroxy-1-methyl-2-oxo-pyrrolidin-3-yl]ethynyl]phenyl]-6-(1H-pyrazol-5-yl)pyrimidine-4-carboxamide], for which the IC50 was 206 nM in experiment [1] (Homo sapiens) and no less than 20000 nM in experiment [3] (Homo sapiens, HeLa). Besides, in experiment [2], the Ki amounted to 0.6 nM.

Regarding `CN1CC[C@@](O)(C#Cc2cccc(-c3nc(C(N)=O)cc(-n4ccnc4)n3)c2)C1=O` [Example 70, 2-[3-[2-[(3R)-3-hydroxy-1-methyl-2-oxo-pyrrolidin-3-yl]ethynyl]phenyl]-6-imidazol-1-yl-pyrimidine-4-carboxamide], the IC50 is 79 nM in experiment [1] (Homo sapiens) and no less than 20000 nM in experiment [3] (Homo sapiens, HeLa). In experiment [2], this compound registered a Ki of 0.94 nM.

In the case of `Cc1ccnn1-c1cc(C(N)=O)nc(-c2cccc(C#C[C@]3(O)CCN(C)C3=O)c2)n1` [Example 71, 2-[3-[2-[(3R)-3-hydroxy-1-methyl-2-oxo-pyrrolidin-3-yl]ethynyl]phenyl]-6-(5-methylpyrazol-1-yl) pyrimidine-4-carboxamide], the IC50 in experiment [1] (Homo sapiens) is 8.94 nM; in experiment [3] (Homo sapiens, HeLa) it was no less than 20000 nM. The same compound had an inhibition constant Ki in experiment [2] of 0.18 nM.

Turning to `CN1CC[C@@](O)(C#Cc2cccc(-c3nc(C(N)=O)c(N)c(-n4cccn4)n3)c2)C1=O` [Example 72, 5-amino-2-[3-[2-[(3R)-3-hydroxy-1-methyl-2-oxo-pyrrolidin-3-yl]ethynyl]phenyl]-6-pyrazol-1-yl-pyrimidine-4-carboxamide], the IC50 in experiment [1] (Homo sapiens) amounted to 6.43 nM; in experiment [3] (Homo sapiens, HeLa) it was 6320 nM. In experiment [2], the inhibition constant Ki was determined as 0.05 nM.

Consider `CN1CC[C@@](O)(C#Cc2cccc(-c3nc(C(N)=O)cc4c3cnn4C)c2)C1=O` [Example 74, 4-[3-[2-[(3R)-3-hydroxy-1-methyl-2-oxo-pyrrolidin-3-yl]ethynyl]phenyl]-1-methyl-pyrazolo[4,3-c]pyridine-6-carboxamide], for which the concentration for half-maximal inhibition (IC50) in experiment [1] (Homo sapiens) is 60.2 nM; in experiment [3] (Homo sapiens, HeLa), no less than 20000 nM. For the same compound, the Ki in experiment [2] was determined as 0.53 nM.

Regarding `Cc1cnc2c(-c3cccc(C#C[C@]4(O)CCN(C)C4=O)c3)nc(C(N)=O)cn12` [Example 75, 8-[3-[2-[(3R)-3-hydroxy-1-methyl-2-oxo-pyrrolidin-3-yl]ethynyl]phenyl]-3-methyl-imidazo[1,2-a]pyrazine-6-carboxamide], the half-maximal inhibitory concentration (IC50) in experiment [1] (Homo sapiens) was 66.8 nM; in experiment [3] (Homo sapiens, HeLa), no less than 20000 nM. In experiment [2], affinity was put at a Ki of 0.38 nM.

For `Cc1cn2cc(C(N)=O)nc(-c3cccc(C#C[C@]4(O)CCN(C)C4=O)c3)c2n1` [Example 76, 8-[3-[2-[(3R)-3-hydroxy-1-methyl-2-oxo-pyrrolidin-3-yl]ethynyl]phenyl]-2-methyl-imidazo[1,2-a] pyrazine-6-carboxamide], the IC50 in experiment [1] (Homo sapiens) was 101 nM; in experiment [3] (Homo sapiens, HeLa) it was no less than 20000 nM. In addition, the affinity in experiment [2] corresponds to a Ki of 0.86 nM.

Turning to `CN1CC[C@@](O)(C#Cc2cc3c(c(-c4cccc(C(N)=O)n4)c2)OCC3)C1=O` [Example 77, 6-[5-[2-[(3R)-3-hydroxy-1-methyl-2-oxo-pyrrolidin-3-yl]ethynyl]-2,3-dihydrobenzofuran-7-yl] pyridine-2-carboxamide], the IC50 in experiment [1] (Homo sapiens) is 247 nM; in experiment [3] (Homo sapiens, HeLa) it was no less than 20000 nM. Also, the affinity in experiment [2], expressed as Ki, was 0.99 nM.

Take `CN1CC[C@@](O)(C#Cc2cccc(-c3cc4c(Cl)c[nH]c4c(C(N)=O)n3)c2)C1=O` [Example 78, 3-chloro-5-[3-[2-[(3R)-3-hydroxy-1-methyl-2-oxo-pyrrolidin-3-yl]ethynyl]phenyl]-1H-pyrrolo[2,3-c]pyridine-7-carboxamide]: the IC50 in experiment [1] (Homo sapiens) was 8.3 nM; in experiment [3] (Homo sapiens, HeLa), 15700 nM. The compound further yielded an inhibitory constant (Ki) in experiment [2] of 0.1 nM.

Regarding `CN1CC[C@@](O)(C#Cc2cccc(-c3nc(C(N)=O)c(NC4COC4)cc3F)c2)C1=O` [Example 79, 5-fluoro-6-[3-[2-[(3R)-3-hydroxy-1-methyl-2-oxo-pyrrolidin-3-yl]ethynyl]phenyl]-3-(oxetan-3-ylamino)pyridine-2-carboxamide], the IC50 in experiment [1] (Homo sapiens) was 9.86 nM; in experiment [3] (Homo sapiens, HeLa), no less than 20000 nM. In experiment [2], this compound showed a Ki of 0.05 nM.

For the compound `COCCNc1cc(F)c(-c2cccc(C#C[C@]3(O)CCN(C)C3=O)c2)nc1C(N)=O` [Example 80, 5-fluoro-6-[3-[2-[(3R)-3-hydroxy-1-methyl-2-oxo-pyrrolidin-3-yl]ethynyl]phenyl]-3-(2-methoxyethylamino) pyridine-2-carboxamide], the IC50 was 4.65 nM in experiment [1] (Homo sapiens) and no less than 20000 nM in experiment [3] (Homo sapiens, HeLa). The compound also yielded a Ki in experiment [2] of 0.05 nM.

Values taken from US20160185797A1, “ALKYNYL ALCOHOLS AND METHODS OF USE” (Genentech, Inc., priority 2013, published 2016).
